Data published in patent US10266544B2, “Aryl substituted aminomethyl spectinomycin analogs as antibacterial agents” (ST. JUDE CHILDREN'S RESEARCH HOSPITAL, INC., priority 2013, dated 2019).
≈ marks a conversion by molar mass, not a printed value. Structures can show the parent of a compound that is named as a salt. Where two headings read alike, the source gives them in different places.

Key:
Type in all cases: cell-based
[1] = test system: Bacillus anthracis, Sterne 34F2; assay: microbe, parasite or virus in culture; conditions: STERNE34F2, read-out: MIC B.a.
[2] = test system: Bacillus subtilis (ATCC 23857); assay: MIC determination, microbroth dilution
[3] = test system: Enterococcus faecalis (ATCC 33186); assay: MIC determination, microbroth dilution
[4] = test system: Staphylococcus aureus (ATCC 29213); assay: MIC determination, microbroth dilution
[5] = test system: MRSA, Staphylococcus aureus (NRS70); assay: MIC determination, microbroth dilution; conditions: read-out: MIC MRSA
[6] = test system: Streptococcus pneumoniae (R6); assay: MIC determination, microbroth dilution; conditions: read-out: MIC S. pn.
[7] = test system: Streptococcus pyogenes (ATCC 700294); assay: MIC determination, microbroth dilution
[8] = test system: acinetobacter baumannii (ATCC 19606); assay: MIC determination, microbroth dilution; conditions: ATCC19606
[9] = test system: Burkholderia cepacia (ATCC 25416); assay: MIC determination, microbroth dilution; conditions: Burkholderia cepacia
[10] = test system: Escherichia coli (ATCC 700926); assay: MIC determination, microbroth dilution; conditions: ATCC700926; Escherichia coli (ATCC 700926); read-out: MIC E.c.
[11] = test system: E. coli K12 ΔtolC; assay: microbe, parasite or virus in culture; conditions: Escherichia coli, read-out: MIC E.c. Δtolc
[12] = test system: Klebsiella pneumoniae (ATCC 33495); assay: MIC determination, microbroth dilution; conditions: ATCC33495
[13] = test system: Pseudomonas aeruginosa (PA01); assay: MIC determination, microbroth dilution
[14] = test system: Proteus mirabilis (ATCC 25933); assay: MIC determination, microbroth dilution; conditions: ATCC25933
[15] = test system: Proteus vulgaris (ATCC 33420); assay: MIC determination, microbroth dilution; conditions: ATCC33420
[16] = test system: Stenotrophomonas maltophilia (ATCC 13637); assay: MIC determination, microbroth dilution
[17] = test system: Haemophilus influenza (ATCC 49247); assay: microbe, parasite or virus in culture; conditions: ATCC49247; Haemophilus influenza; 4 μg per disc; range of at least two experiments; read-out: Zone of inhibition H.i.
[18] = test system: Legionella pneumophila (ATCC 33153); assay: microbe, parasite or virus in culture; conditions: ATCC33153, 72 h, read-out: Zone of inhibition L.p.
[19] = test system: Neisseria meningitides (ATCC 13077); assay: Disc diffusion assay; conditions: ATCC13077, 4 μg per disc, read-out: Zone of inhibition N.m.
[20] = test system: Neisseria gonorrhoeae (ATCC 49226); assay: Disc diffusion assay; conditions: ATCC49226, 4 μg per disc, read-out: Zone of inhibition N.g.
[21] = test system: Bacillus anthracis; assay: microbe, parasite or virus in culture; conditions: read-out: MIC B.a.
[22] = test system: M. tuberculosis clinical isolates; assay: microbe, parasite or virus in culture; conditions: Mycobacterium tuberculosis
[23] = test system: Listeria monocytogenes; assay: MIC determination (Table 6)
[24] = test system: Moraxella catarrhalis; assay: MIC determination (Table 6)
[25] = ATCC23857, Bacillus subtilis (ATCC 23857), read-out: MIC B.s.
[26] = ATCC700294, Streptococcus pyogenes (ATCC 700294), read-out: MIC S. py.
[27] = ATCC25416, read-out: MIC B.c., Burkholderia cepacia (ATCC 25416)
[28] = ATCC25416, read-out: MIC B.c., Burkholderia cepacia, Table 6
[29] = ATCC13637, Stenotrophomonas maltophilia (ATCC 13637), read-out: MIC S.m.
[30] = ATCC33186, Enterococcus faecalis (ATCC 33186), read-out: MIC E.f.
[31] = ATCC29213, Staphylococcus aureus (ATCC 29213), read-out: MIC S.a.

SMILES	MIC [1] [µg/mL]	MIC [2, 25] [µg/mL]	MIC ([6]; Streptococcus pneumoniae (R6)) [µg/mL]	MIC [7, 26] [µg/mL]	MIC [8] [µg/mL]	MIC [9, 27] [µg/mL]	MIC [9, 28] [µg/mL]	MIC [10] [µg/mL]	MIC [11] [µg/mL]	MIC [13] [µg/mL]	MIC [14] [µg/mL]	MIC [15] [µg/mL]	zone of inhibition at 4 µg/disc [17] [mm]	zone of inhibition at 4 µg/disc [18] [mm]	zone of inhibition at 4 µg/disc [19] [mm]	zone of inhibition at 4 µg/disc [20] [mm]	MIC [21] [µg/mL]	MIC ([22]; H37RV, read-out: MIC H37Rv) [µg/mL]	MIC [23] [µg/mL]	MIC [24] [µg/mL]	other results
CN[C@@H]1[C@H](O)[C@H](NC)[C@H]2O[C@]3(O)[C@H](O[C@@H]2[C@H]1O)O[C@H](C)C[C@@]3(O)CNCc1ccc(C(C)C)cc1 [compound 23, 3′-(R)-3′-[(4-isopropyl)benzylaminomethyl)]dihydrospectinomycin Trihydrochloride]	12.5	6.3	1.6 to 3.1	1.6	50	> 200	> 200	12.5	3.1 to 6.3	25	> 200	> 200	15	12	17	18	12.5	25	6.3	3.1 to 6.3	MIC ([3]; Enterococcus faecalis, ATCC33186, read-out: MIC E.f.): 12.5 µg/mL; MIC ([4]; Staphylococcus aureus, ATCC29213, read-out: MIC S.a.): 12.5 to 25 µg/mL; MIC ([5]; Staphylococcus aureus): 12.5 µg/mL; MIC [12]: 50 µg/mL; MIC [16, 29]: 6.3 µg/mL
CN[C@@H]1[C@H](O)[C@H](NC)[C@H]2O[C@]3(O)[C@H](O[C@@H]2[C@H]1O)O[C@H](C)C[C@@]3(O)CNCc1ccc(C)cc1C [compound 24, 3′-(R)-3′-[(2,4-dimethyl)benzylaminomethyl)]dihydrospectinomycin Trihydrochloride]	50	12.5	3.1	1.6	200	> 200	> 200	25	12.5 to 25	50	> 200	200	14	18	17	18	50	25	12.5	1.6	MIC [3, 30]: 12.5 µg/mL; MIC [4, 31]: 6.3 to 12.5 µg/mL; MIC ([5]; Staphylococcus aureus (NRS70)): 50 µg/mL; MIC [12]: 100 to 200 µg/mL; MIC [16, 29]: 25 to 50 µg/mL
CN[C@@H]1[C@H](O)[C@H](NC)[C@H]2O[C@]3(O)[C@H](O[C@@H]2[C@H]1O)O[C@H](C)C[C@@]3(O)CNCc1cccc(OC(F)(F)F)c1 [compound 25, 3′-(R)-3′-[(3-trifluoromethoxyl)benzylaminomethyl)]dihydrospectinomycin Trihydrochloride]	25	12.5 to 25	1.6 to 3.1	1.6	–	–	> 200	–	–	50 to 100	> 200	> 200	9 to 10	19	18	18	25	200	6.3	6.3	MIC [3, 30]: 12.5 to 25 µg/mL; MIC [4, 31]: 25 to 50 µg/mL; MIC ([5]; Staphylococcus aureus (NRS70)): 50 µg/mL; MIC [16, 29]: 12.5 to 25 µg/mL
CN[C@@H]1[C@H](O)[C@H](NC)[C@H]2O[C@]3(O)[C@H](O[C@@H]2[C@H]1O)O[C@H](C)C[C@@]3(O)CNCCc1cccs1 [compound 61, 3′-(R)-3′-[((2-(thiophen-2-yl)ethyl)aminomethyl]dihydrospectinomycintrihydrobromide]	12.5 to 50	6.3	6.3	12.5	> 200	≥ 200	≥ 200	25	3.1 to 6.3	> 200	200	100 to 200	14	30	14	13	12.5 to 50	6.3	6.3	1.6	MIC [4, 31]: 12.5 µg/mL; MIC ([5]; Staphylococcus aureus (NRS70)): 25 to 50 µg/mL; MIC [12]: 50 µg/mL; MIC [16, 29]: 12.5 µg/mL; MIC ([22]; read-out: MIC TN022): 6.3 µg/mL; MIC ([22]; read-out: MIC TN026): 6.3 µg/mL
CN[C@@H]1[C@H](O)[C@H](NC)[C@H]2O[C@]3(O)[C@H](O[C@@H]2[C@H]1O)O[C@H](C)C[C@@]3(O)CNCCc1ccc[nH]1 [compound 62, 3′-(R)-3′-[((2-(1H-pyrrol-2-yl)ethyl)aminomethyl]dihydrospectinomycintetrahydrobromide]	25	6.3	100	200	> 200	> 200	> 200	50	12.5	> 200	200	50 to 100	0	12	0	0	25	50	25	12.5	MIC [4, 31]: 25 µg/mL; MIC ([5]; Staphylococcus aureus): 12.5 to 25 µg/mL; MIC [12]: 100 to 200 µg/mL; MIC [16, 29]: 6.3 µg/mL; MIC ([22]; read-out: MIC TN022): 25 µg/mL; MIC ([22]; read-out: MIC TN026): 100 µg/mL
CN[C@@H]1[C@H](O)[C@H](NC)[C@H]2O[C@]3(O)[C@H](O[C@@H]2[C@H]1O)O[C@H](C)C[C@@]3(O)CNCCc1nccs1 [compound 64, 3′-(R)-3′-[((2-(thiazol-2-yl)ethyl)aminomethyl]dihydrospectinomycintetrahydrobromide]	50	12.5 to 25	12.5	25	> 200	> 200	> 200	50 to 100	25 to 50	> 200	> 200	> 200	11	33	11	8	50	1.6	12.5	3.1	MIC [4, 31]: 50 to 100 µg/mL; MIC ([5]; Staphylococcus aureus (NRS70)): > 200 µg/mL; MIC [12]: 100 to 200 µg/mL; MIC [16, 29]: 25 to 50 µg/mL; MIC ([22]; read-out: MIC TN022): 1.6 µg/mL; MIC ([22]; read-out: MIC TN026): 1.6 µg/mL
CN[C@@H]1[C@H](O)[C@H](NC)[C@H]2O[C@]3(O)[C@H](O[C@@H]2[C@H]1O)O[C@H](C)C[C@@]3(O)CNCC(C)c1ccccc1 (stereo partly drawn) [compound 65]	12.5 (≈ 26 µM)	–	–	–	> 200	≥ 200	≥ 200	50 (≈ 104 µM)	6.3 to 12.5 (≈ 13.1 to 26 µM)	> 200	> 200	> 200	10	22	13	12	12.5 (≈ 26 µM)	50 (≈ 104 µM)	12.5 (≈ 26 µM)	3.1 (≈ 6.44 µM)	MIC ([2]; Bacillus subtilis, ATCC23857, read-out: MIC B.s.): 12.5 µg/mL (≈ 26 µM); MIC [4, 31]: 25 µg/mL (≈ 51.9 µM); MIC ([5]; Staphylococcus aureus): 12.5 to 25 µg/mL (≈ 26 to 51.9 µM); MIC ([6]; Streptococcus pneumoniae): 12.5 µg/mL (≈ 26 µM); MIC ([7]; Streptococcus pyogenes, ATCC700294, read-out: MIC S. py.): 12.5 µg/mL (≈ 26 µM); MIC [12]: > 200 µg/mL; MIC ([16]; Stenotrophomonas maltophilia, ATCC13637, read-out: MIC S.m.): 12.5 µg/mL (≈ 26 µM); MIC ([22]; read-out: MIC TN022): 100 µg/mL (≈ 208 µM); MIC ([22]; read-out: MIC TN026): 100 µg/mL (≈ 208 µM)
